In BindingDB's records for doi:10.7270/Q2M61HQ8 (Southern Research Specialized Biocontainment Screening …, 2010) one finds IC50 data, which are given here for eleven molecules.

By IC50 is commonly meant the concentration that inhibits the measured activity by half. Read a high IC50 as weaker potency.

This experiment has as its target Large T antigen (Simian virus 40, UniProt P03070). The experiment in a line: TAg ATPase/helicase activity blockers – biochemical (AID 1903).

Structures are written as SMILES.

Sequence of Large T antigen (P03070 whole entry): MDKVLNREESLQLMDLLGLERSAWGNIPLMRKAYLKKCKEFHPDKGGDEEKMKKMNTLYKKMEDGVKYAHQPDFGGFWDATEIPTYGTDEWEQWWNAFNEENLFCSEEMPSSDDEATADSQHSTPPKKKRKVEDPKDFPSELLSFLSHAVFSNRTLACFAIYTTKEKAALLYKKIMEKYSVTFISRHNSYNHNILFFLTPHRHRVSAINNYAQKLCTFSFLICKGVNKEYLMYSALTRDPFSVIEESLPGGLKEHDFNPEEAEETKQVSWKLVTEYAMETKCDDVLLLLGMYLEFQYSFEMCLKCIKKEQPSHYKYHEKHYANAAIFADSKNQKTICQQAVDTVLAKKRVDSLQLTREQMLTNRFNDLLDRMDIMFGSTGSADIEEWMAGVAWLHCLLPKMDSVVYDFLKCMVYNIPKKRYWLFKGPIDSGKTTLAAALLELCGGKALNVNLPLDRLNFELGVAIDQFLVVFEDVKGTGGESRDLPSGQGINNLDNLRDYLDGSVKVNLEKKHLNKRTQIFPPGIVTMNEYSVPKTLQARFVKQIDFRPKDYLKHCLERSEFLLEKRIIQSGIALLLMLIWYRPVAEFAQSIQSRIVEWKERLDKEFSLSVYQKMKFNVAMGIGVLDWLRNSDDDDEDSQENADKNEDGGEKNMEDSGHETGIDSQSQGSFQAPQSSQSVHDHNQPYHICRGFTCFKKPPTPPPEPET

In turn, `CN(C)c1ccc(NC(=O)c2cccc(-n3c(O)ccc3O)c2)cc1` [N-[4-(dimethylamino)phenyl]-3-(2,5-dioxopyrrolidin-1-yl)benzamide] had an IC50 of 9.21 µM.
In turn, `Cc1ccc(Nc2oc3cc(=O)ccc-3cc2C(N)=O)cc1` [2-(4-methylanilino)-7-oxochromene-3-carboxamide] displayed an IC50 of 33.8 µM.
For `N#CC1C(=N)C2=C(N3CCCCC3)CCCC2C1(C#N)C#N` (stereo unspecified) [3-Amino-4-piperidin-1-yl-5,6,7,7a-tetrahydro-indene-1,1,2-tricarbonitrile] the value was 9.99 µM.
For `CN(C)c1ccc(N=CCC(=O)c2ccccc2)cc1` [(E)-3-[4-(dimethylamino)anilino]-1-phenyl-2-propen-1-one], 5.19 µM corresponded to half-maximal inhibition (IC50).
`Cc1cc(-c2nc3c4c5c(sc4nc(=O)n3[nH]2)CCC5)c(C)o1` [MLS000048351] returned an IC50 of 24.8 µM.
The molecule `CCN(CC)CCN1C(=O)C(=O)C(C(=O)c2ccc(C)cc2)C1c1cccnc1` (stereo unspecified) [(4E)-1-[2-(diethylamino)ethyl]-4-[hydroxy-(4-methylphenyl)methylidene]-5-(3-pyridinyl)pyrrolidine-2,3-dione] displayed an IC50 of 18.9 µM.
In turn, `O=C1CCCC(=O)C1=CNc1ccc(O)cc1` [2-[(4-hydroxyanilino)methylidene]cyclohexane-1,3-dione] registered an IC50 of 12.3 µM.
In turn, `CC1(C)CC(=O)C(=CNc2ccc(O)cc2)C(=O)C1` [SMR000024722] gave an IC50 of 5.53 µM.
For `O=C1CCCC2=Nc3[nH]c(=S)[nH]c(=O)c3C(c3ccc(Br)cc3)C12` (stereo unspecified) [5-(4-bromophenyl)-2-thioxo-2,3,5,8,9,10-hexahydropyrimido[4,5-b]quinoline-4,6(1H,7H)-dione] the value was 48.1 µM; for `Oc1ccc(-c2nc3c[nH]ccn-3c2=Nc2ccc3c(c2)OCCO3)cc1` [MLS000116162], 4.14 µM; for `COc1cc(-c2nc3c[nH]ccn-3c2=Nc2ccccc2)ccc1O` [SMR000093145], 5.05 µM.
